According to patent US6063814A, “Phorbol esters as anti-neoplastic and white blood cell elevating agents” (priority 1997, dated 2000):
Values joined by “and” are separate entries in the source; they are usually repeats but may differ in a detail not shown here. Equal entries are not always repeated.

System: leukemia (bone marrow myeloblast and promyelocyte)
Test: Clinical treatment of leukemia patients with TPA
Type: in vivo, humans
Conditions: for bone marrow suppression, infection or bleeding: during and after treatment; for Spleen below the rib cage after treatment: 3 cm before
Procedure: The results obtained upon treatment of patients with TPA as presented in tabular form and in subsequent examples.
In the subjects identified as (1) through (5) below, chronic myelocytic leukemia had progressed to acute myelocytic leukemia before treatment with TPA.
Subject No. (1), patient No. 28879. Blood profile before TPA treatment: Hb: 28 g/L; WBC: 1.0×10^9 /L, platelet: 135×10^9 /L. Bone marrow profile before TPA treatment: myeloblast+promyelocyte: 30%. TPA treatment: 1 mg/week (0.25 mg administered four times) for two weeks. Blood profile after treatment: Hb: 86 g/L; WBC: 2.8×10^9 /L, platelet: 283×10^9 /L. Bone marrow profile after TPA treatment: myeloblast+promyelocyte: 2.5%.
Subject No. (2), patient No. 29926. Diagnosis: chronic myelocytic leukemia became acute myelocytic leukemia before treatment. Blood profile before TPA treatment: Hb: 94 g/L; WBC: 9.8×10^9 /L, platelet: 63×10^9 /L. Spleen: 3 cm below the rib cage. Bone marrow profile before TPA treatment: myeloblast+promyelocyte: 36%. TPA treatment: 1 mg/week for 5 weeks. Blood profile after treatment: Hb: 104 g/L; WBC: 4.9×10^9 /L, platelet: 80×10^9 /L. Spleen: 0.5 cm below the rib cage. Bone marrow profile after TPA treatment: myeloblast+promyelocyte: 3%.
Subject No. (3), patient No. 18102. Diagnosis: chronic myelocytic leukemia became acute myelocytic leukemia before treatment. Blood profile before TPA treatment: Hb: 70 g/L; WBC: 27.5×10^9 /L, platelet: 21×10^9 /L. Bone marrow profile before TPA treatment: myeloblast+promyelocyte: 90%. TPA treatment: 1 mg/week for 7 weeks. Blood profile after treatment: Hb: 96 g/L; WBC: 22×10^9 /L, platelet: 70×10^9 /L. Bone marrow profile after TPA treatment: myeloblast+promyelocyte: 2%.
Subject No. (4), patient No. 21315. Diagnosis: chronic myelocytic leukemia became acute myelocytic leukemia before treatment. Blood profile before TPA treatment: Hb: 87 g/L; WBC: 19×10^9 /L, platelet: 150×10^9 /L. Bone marrow profile before TPA treatment: myeloblast+promyelocyte: 67.5%. TPA treatment: 1 mg/week for 7 weeks. Blood profile after treatment: Hb: 45 g/L; WBC: 53.5×10^9 /L, platelet: 210×10^9 /L. Bone marrow profile after TPA treatment: myeloblast+promyelocyte: 4.5%.
Subject No. (5), patient No. 23965. Diagnosis: chronic myelocytic leukemia progressed to acute myelocytic leukemia. Blood profile before TPA treatment: Hb: 84 g/L; WBC: 36.6×10^9 /L, platelet: 290×10^9 /L. Bone marrow profile before TPA treatment: myeloblast+promyelocyte: 27.5%. TPA treatment: 1 mg/week for 2 weeks. Blood profile after treatment: Hb: 84 g/L; WBC: 27.3×10^9 /L, platelet: 170×10^9 /L. Bone marrow profile after TPA treatment: myeloblast+promyelocyte: 1.5%.
All the above patients had received various regimens of chemotherapy prior to the TPA treatment, including hydroxyurea, busulfan, and Ara-C, etc. but none was effective at the start of TPA treatment. Before the administration of TPA, patients received injection of 6×10^5 units of vitamin D3 (VD3)/person for 2 days; after the TPA administration, patients received i.v. infusion of 40 mg of Ara-C/d×3. […] These patients have been in clinical remission for over 6 months.
Subject No. (6), person. Diagnosed as AML-M3. Symptoms began in January, 1995. Blood profile: Hb:60 g/L, WBC: 0.4×10^9 /L, platelet: 40×10^9 /L. Bone marrow profile: myeloblast+promyelocyte: 48%. The TPA treatment period was 1 mg/week for three weeks, and 6×10^5 units VD3 /d×3 were injected prior to the treatment. […] The patient has been in remission after treatment for at least 6 months.
Subject No. (7), person. Diagnosis: MDS-REAB accompanied by an increased number of monocytes. […] The patient started to receive a combination treatment of 1,25-(OH)2 VD3 +TPA+low dose Ara-C. TPA dosage: 0.25-0.5 mg (1 mg per week) for eleven weeks. […]

[1] = subject 6, AML-M3, TPA 1 mg/week three weeks, VD3 prior
[2] = subject 7, MDS-REAB, 1,25-(OH)2 VD3+TPA+low dose Ara-C, eleven weeks
[3] = subject 7, combination with 1,25-(OH)2 VD3 and Ara-C
[4] = subject 7, combination with 1,25-(OH)2 VD3 and Ara-C, blood
[5] = subject 8, AML-M3, retinoic acid failed
[6] = subject 9, secondary aplastic anemia, TPA 0.25 mg×2
[7] = subject 10, CML, TPA 0.25 mg once
[8] = subject 10, CML, TPA 0.25 mg once, second day
[9] = subjects 1-5, VD3 before, Ara-C after TPA

CCCCCCCCCCCCCC(=O)O[C@@H]1[C@@H](C)[C@@]2(O)[C@@H](C=C(CO)C[C@]3(O)C(=O)C(C)=C[C@@H]23)[C@@H]2C(C)(C)[C@]12OC(C)=O [TPA, Phorbol 12-Myristate-13-Acetate]
Bone marrow myeloblast+promyelocyte after TPA treatment (CML progressed to AML, TPA 1 mg/week for 2-7 weeks, VD3 before, Ara-C after): 2.5% and 3% and 2% and 4.5% and 1.5%
duration of clinical remission (many of the patients, from first treatment): over six months
clinical remission (refractory leukemia patients): clinical remission was achieved in a relatively short time
bone marrow suppression, infection or bleeding (refractory leukemia patients): no bone marrow suppression, infection or bleeding
Spleen below the rib cage after treatment (subject 2, TPA 1 mg/week for 5 weeks): 0.5 cm
duration of remission (subject 6, AML-M3): at least 6 months
remission (subject 6, AML-M3): met the standard for AML-M3 remission
Bone marrow myeloblast+promyelocyte after first treatment period [1]: 3%
Hb after first treatment period [1]: 118 g/L
WBC after first treatment period [1]: 4.1e+09 L⁻¹
platelet after first treatment period [1]: 8e+10 L⁻¹
Hb after treatment [2]: 42 g/L
WBC after treatment [2]: 1.02e+10 L⁻¹
platelet after treatment [2]: 3.4e+10 L⁻¹
Spleen below the rib cage after treatment [2]: 0.5 cm
Bone marrow myeloblast after treatment [3]: 4%
Bone marrow promyelocyte after treatment [3]: 6%
Lymphocyte after treatment [4]: 19%
Monocyte after treatment [4]: 1%
Neutrophil after treatment [4]: 80%
Promyelocytes in blood after treatment [4]: not detected
WBC after TPA treatment [5]: 2.2e+09 L⁻¹
platelet after TPA treatment [5]: 2.23e+11 L⁻¹
Hb after TPA treatment [6]: 32 g/L
platelet after TPA treatment [6]: 5.7e+10 L⁻¹
Hb after treatment [7]: 96 g/L
WBC after treatment [7]: 2e+09 L⁻¹
platelet after treatment [7]: 1.12e+11 L⁻¹
myeloblast+promyelocyte [8]: 4%
myelocyte [8]: 5%
clinical remission in bone marrow parameters [9]: all achieved clinical remission in bone marrow parameters in a short time
duration of clinical remission [9]: over 6 months
bone marrow suppression, infection or bleeding (subjects 1-5): no bone marrow suppression, nor infection or bleeding
